Active and inactive are the calls of the source. How the calls were made is not given here.
Test system: CCRIS mutagenicity, Ames/micronucleus/aberration tests
Experiment: CCRIS mutagenicity studies
[1] = Test System: AMES SALMONELLA TYPHIMURIUM, Strain/Indicator: TA98(NR), Metabolic Activation: NONE, Method: PREINCUBATION
[2] = Test System: AMES SALMONELLA TYPHIMURIUM, Strain/Indicator: TA98(NR), Metabolic Activation: RAT, LIVER, S-9, AROCLOR 1254, Method: PREINCUBATION
[3] = Test System: AMES SALMONELLA TYPHIMURIUM, Strain/Indicator: TA98, Metabolic Activation: NONE, Method: PREINCUBATION
[4] = Test System: AMES SALMONELLA TYPHIMURIUM, Strain/Indicator: TA98, Metabolic Activation: RAT, LIVER, S-9, AROCLOR 1254, Method: PREINCUBATION
[5] = Test System: AMES SALMONELLA TYPHIMURIUM, Strain/Indicator: TA100, Metabolic Activation: NONE, Method: PREINCUBATION
[6] = Test System: AMES SALMONELLA TYPHIMURIUM, Strain/Indicator: TA100, Metabolic Activation: RAT, LIVER, S-9, AROCLOR 1254, Method: PREINCUBATION

In the case of `O=C1NCCN1c1ncc([N+](=O)[O-])s1`, the mutagenic call (Test System: AMES SALMONELLA TYPHIMURIUM, Strain/Indicator: TA96(NR), Metabolic Activation: NONE, Method: STANDARD PLATE) is reported as “inactive; negative”, the mutagenic call (Test System: AMES SALMONELLA TYPHIMURIUM, Strain/Indicator: TA96(NRB), Metabolic Activation: NONE, Method: PREINCUBATION) is reported as “active; positive” and the mutagenic call (Test System: AMES SALMONELLA TYPHIMURIUM, Strain/Indicator: TA96(NRB), Metabolic Activation: RAT, LIVER, S-9, AROCLOR 1254, Method: PREINCUBATION) is reported as “active; positive”. The mutagenic call (Test System: AMES SALMONELLA TYPHIMURIUM, Strain/Indicator: TA96(NRC), Metabolic Activation: NONE, Method: PREINCUBATION) was “inactive; negative”, the mutagenic call (Test System: AMES SALMONELLA TYPHIMURIUM, Strain/Indicator: TA96(NRC), Metabolic Activation: RAT, LIVER, S-9, AROCLOR 1254, Method: PREINCUBATION) was “inactive; negative” and the mutagenic call (Test System: AMES SALMONELLA TYPHIMURIUM, Strain/Indicator: TA96, Metabolic Activation: NONE, Method: PREINCUBATION) was “active; positive”. The mutagenic call (Test System: AMES SALMONELLA TYPHIMURIUM, Strain/Indicator: TA96, Metabolic Activation: NONE, Method: STANDARD PLATE) was “active; positive”, the mutagenic call (Test System: AMES SALMONELLA TYPHIMURIUM, Strain/Indicator: TA96, Metabolic Activation: RAT, LIVER, S-9, AROCLOR 1254, Method: PREINCUBATION) was “active; positive” and the mutagenic call (Test System: AMES SALMONELLA TYPHIMURIUM, Strain/Indicator: TA97, Metabolic Activation: NONE, Method: PREINCUBATION) was “active; positive”. For the same molecule, the mutagenic call (Test System: AMES SALMONELLA TYPHIMURIUM, Strain/Indicator: TA97, Metabolic Activation: NONE, Method: STANDARD PLATE) was “active; positive”, the mutagenic call (Test System: AMES SALMONELLA TYPHIMURIUM, Strain/Indicator: TA97, Metabolic Activation: RAT, LIVER, S-9, AROCLOR 1254, Method: PREINCUBATION) was “active; positive” and the mutagenic call [1] was “active; positive”. The mutagenic call (Test System: AMES SALMONELLA TYPHIMURIUM, Strain/Indicator: TA98(NR), Metabolic Activation: NONE, Method: STANDARD PLATE) was “inactive; negative”, the mutagenic call [2] was “active; positive” and the mutagenic call [3] was “active; positive”. The mutagenic call (Test System: AMES SALMONELLA TYPHIMURIUM, Strain/Indicator: TA98, Metabolic Activation: NONE, Method: STANDARD PLATE) was “active; positive”, the mutagenic call [4] was “active; positive” and the mutagenic call (Test System: AMES SALMONELLA TYPHIMURIUM, Strain/Indicator: TA98, Metabolic Activation: RAT, LIVER, S-9, AROCLOR 1254 OR PHENOBARBITOL, Method: STANDARD PLATE) was “active; positive”. The mutagenic call (Test System: AMES SALMONELLA TYPHIMURIUM, Strain/Indicator: TA98, Metabolic Activation: RAT, LIVER, S-9, KC500 OR PHENOBARBITAL, Method: LIQUID SUSPENSION) was “active; positive”, the mutagenic call (Test System: AMES SALMONELLA TYPHIMURIUM, Strain/Indicator: TA100(NR), Metabolic Activation: NONE, Method: PREINCUBATION) was “active; positive” and the mutagenic call (Test System: AMES SALMONELLA TYPHIMURIUM, Strain/Indicator: TA100(NR), Metabolic Activation: NONE, Method: STANDARD PLATE) was “inactive; negative”. For the same molecule, the mutagenic call (Test System: AMES SALMONELLA TYPHIMURIUM, Strain/Indicator: TA100(NR), Metabolic Activation: RAT, LIVER, S-9, AROCLOR 1254, Method: PREINCUBATION) was “active; positive”, the mutagenic call [5] was “active; positive” and the mutagenic call [6] was “active; positive”. For the same molecule, the mutagenic call (Test System: AMES SALMONELLA TYPHIMURIUM, Strain/Indicator: TA100, Metabolic Activation: RAT, LIVER, S-9, AROCLOR 1254 OR PHENOBARBITOL, Method: STANDARD PLATE) was “active; positive”, the mutagenic call (Test System: AMES SALMONELLA TYPHIMURIUM, Strain/Indicator: TA100, Metabolic Activation: RAT, LIVER, S-9, KC500 OR PHENOBARBITAL, Method: LIQUID SUSPENSION) was “active; positive” and the mutagenic call (Test System: AMES SALMONELLA TYPHIMURIUM, Strain/Indicator: TA102(NRD), Metabolic Activation: NONE, Method: PREINCUBATION) was “active; positive”. The mutagenic call (Test System: AMES SALMONELLA TYPHIMURIUM, Strain/Indicator: TA102(NRD), Metabolic Activation: RAT, LIVER, S-9, AROCLOR 1254, Method: PREINCUBATION) was “active; positive”, the mutagenic call (Test System: AMES SALMONELLA TYPHIMURIUM, Strain/Indicator: TA102, Metabolic Activation: NONE, Method: PREINCUBATION) was “active; positive” and the mutagenic call (Test System: AMES SALMONELLA TYPHIMURIUM, Strain/Indicator: TA102, Metabolic Activation: NONE, Method: STANDARD PLATE) was “active; positive”. The mutagenic call (Test System: AMES SALMONELLA TYPHIMURIUM, Strain/Indicator: TA102, Metabolic Activation: RAT, LIVER, S-9, AROCLOR 1254, Method: PREINCUBATION) was “active; positive”, the mutagenic call (Test System: AMES SALMONELLA TYPHIMURIUM, Strain/Indicator: TA104, Metabolic Activation: NONE, Method: STANDARD PLATE) was “inactive; negative” and the mutagenic call (Test System: AMES SALMONELLA TYPHIMURIUM, Strain/Indicator: TA1535, Metabolic Activation: NONE, Method: STANDARD PLATE) was “inactive; negative”. For the same molecule, the mutagenic call (Test System: AMES SALMONELLA TYPHIMURIUM, Strain/Indicator: TA1535, Metabolic Activation: RAT, LIVER, S-9, AROCLOR 1254 OR PHENOBARBITOL, Method: STANDARD PLATE) was “inactive; negative”, the mutagenic call (Test System: AMES SALMONELLA TYPHIMURIUM, Strain/Indicator: TA1537, Metabolic Activation: NONE, Method: STANDARD PLATE) was “inactive; negative” and the mutagenic call (Test System: AMES SALMONELLA TYPHIMURIUM, Strain/Indicator: TA1537, Metabolic Activation: RAT, LIVER, S-9, AROCLOR 1254 OR PHENOBARBITOL, Method: STANDARD PLATE) was “inactive; negative”. The mutagenic call (Test System: AMES SALMONELLA TYPHIMURIUM, Strain/Indicator: TA1538, Metabolic Activation: NONE, Method: STANDARD PLATE) was “active; positive”, the mutagenic call (Test System: AMES SALMONELLA TYPHIMURIUM, Strain/Indicator: TA1538, Metabolic Activation: RAT, LIVER, S-9, AROCLOR 1254 OR PHENOBARBITOL, Method: STANDARD PLATE) was “active; positive” and the mutagenic call (Test System: E. COLI, Strain/Indicator: WP2, Metabolic Activation: NONE, Method: SPOT) was “active; positive”. For the same molecule, the mutagenic call (Test System: E. COLI, Strain/Indicator: WP2 UVRA, Metabolic Activation: NONE, Method: SPOT) was “active; positive” and the mutagenic call (Test System: E. COLI, Strain/Indicator: WP2 UVRA, Metabolic Activation: NONE, Method: STANDARD PLATE) was “active; positive”.
With `O=Nc1nc[nH]c1-c1ccccc1` the mutagenic call (Test System: AMES SALMONELLA TYPHIMURIUM, Strain/Indicator: TA100, Metabolic Activation: NONE, Method: STANDARD PLATE) was “active; positive”.
`O=c1oc2c([N+](=O)[O-])ccc3ccc4cccc1c4c32` was tested, and the mutagenic call (Test System: AMES SALMONELLA TYPHIMURIUM, Strain/Indicator: TA98(1,8-DNP6), Metabolic Activation: NONE, Method: PREINCUBATION) was “active; positive”, the mutagenic call (Test System: AMES SALMONELLA TYPHIMURIUM, Strain/Indicator: TA98(1,8-DNP6), Metabolic Activation: RAT, LIVER, S-9, AROCLOR 1254, Method: PREINCUBATION) was “active; positive” and the mutagenic call [1] was “active; positive”. For the same molecule, the mutagenic call [2] was “active; positive”, the mutagenic call [3] was “active; positive” and the mutagenic call [4] was “active; positive”. The mutagenic call [5] was “active; positive” and the mutagenic call [6] was “active; positive”.
